Where a SMILES comes first, the peptide text is derived from it. Bridges are numbered along the chain shown (N, C = ends).
Test: Soft spot identification time course in dilute rat intestinal luminal contents with 2PCA derivatization
Assay type: in vitro ADME
Settings: 10 µM peptide; for metabolic soft spot: most N-terminal residue of the ring-opened (singly hydrolyzed) peptide, assigned through the 2PCA tag: dilute rat intestinal luminal contents (fasted male SD rats, duodenum and jejunum), 0.02 mg/mL total protein in 5 mM pH 7.4 phosphate buffer, 37 °C, aliquots at 0, 2.5, 10, 20 min, quenched with acetonitrile containing 20 mM 2PCA, overnight at room temperature, LC-MS/MS (targeted MS/MS, AIF, background subtraction)
Experimental: This three-pronged approach was used to analyze two commercially available cyclic peptides, JB1 and somatostatin, in a typical soft spot identification workflow with automated sample preparation. Both JB1, a 12-mer cyclic peptide with the sequence CYAAPLKPAKSC, and somatostatin, a 14-mer cyclic peptide with the sequence AGCKNFFWKTFTSC (disulfide bound between Cys residues), were subjected to incubation in dilute rat intestinal luminal contents matrix on a liquid handling system. To facilitate unsupervised sample preparation, the enzymatic activity of the matrix was quenched with 1 volume of acetonitrile containing 20 mM 2PCA and incubated overnight. The following day, the samples were injected into the MS for analysis directly with the approach outlined in Figure 3. To increase the throughput and proportion of ‘hands-off’ time, the derivatization step was not quenched, and excess reagent or Schiff bases formed during the incubation were not scavenged by hydrazide (as was performed during the selectivity experiments on the tryptic HeLa lysate). While omitting the hydrazide scavenging step could introduce a decrease in sensitivity due to Schiff base formation on basic sites, the concentrations typically used in in vitro incubations ensure that minor decreases in sensitivity will not have deleterious effects on the workflow as a whole. In this case, the liquid handler utilized was unable to manipulate magnetic beads, but future experiments will incorporate a magnetic-bead-compatible liquid handler to incorporate the scavenging step. The method described has the potential to create more than one 2PCA adduct on a given peptide with basic sites, but the utilization of a targeted approach for the singly modified peptide as outlined here circumvents that complication and ensures MS/MS sampling of the peptide of interest.
HeLa S9 lysate tryptic digest was purchased from ThermoFisher (San Jose, CA, USA). […]
The flushed intestinal luminal contents from fasted rats were pooled and the concentration of protein was determined. […]

Structure (SMILES): CC(C)C[C@@H]1NC(=O)[C@@H]2CCCN2C(=O)[C@H](C)NC(=O)[C@H](C)NC(=O)[C@H](Cc2ccc(O)cc2)NC(=O)[C@@H](N)CSSC[C@@H](C(=O)O)NC(=O)[C@H](CO)NC(=O)[C@H](CCCCN)NC(=O)[C@H](C)NC(=O)[C@@H]2CCCN2C(=O)[C@H](CCCCN)NC1=O [JB1] (H-CYAAPLKPAKSC-OH; disulfide 1-12)
- metabolic soft spot: most N-terminal residue of the ring-opened (singly hydrolyzed) peptide, assigned through the 2PCA tag: serine
- secondary metabolite (subsequent hydrolysis step after ring opening) (dilute rat intestinal luminal contents, 0.02 mg/mL protein, pH 7.4, 37 °C, 10 min time point, background subtracted AIF XIC of m/z 107.0609): clipping of the C-terminal Lysine residue

Structure (SMILES): C[C@H](N)C(=O)NCC(=O)N[C@H]1CSSC[C@@H](C(=O)O)NC(=O)[C@H](CO)NC(=O)[C@H]([C@@H](C)O)NC(=O)[C@H](Cc2ccccc2)NC(=O)[C@H]([C@@H](C)O)NC(=O)[C@H](CCCCN)NC(=O)[C@H](Cc2c[nH]c3ccccc23)NC(=O)[C@H](Cc2ccccc2)NC(=O)[C@H](Cc2ccccc2)NC(=O)[C@H](CC(N)=O)NC(=O)[C@H](CCCCN)NC1=O [somatostatin]
- metabolic soft spot: most N-terminal residue of the ring-opened (singly hydrolyzed) peptide, assigned through the 2PCA tag: first threonine (followed by phenylalanine)

— paper PMC9028278, “2-Pyridine Carboxaldehyde for Semi-Automated Soft Spot Identification in Cyclic Peptides” (International Journal of Molecular Sciences, 2022)
